The results in this text go back to patent US20220125051A1, “PRE-HARVEST DESICCATION METHOD” (SYNGENTA CROP PROTECTION AG, priority 2019, published 2022).

Structures can show the parent of a compound that is named as a salt. Where two headings read alike, the source gives them in different places.

Holding throughout (test): Post-emergence efficacy, Method A
What all share (type): in vivo

One experiment relates to Setaria faberi (SETFA). As to conditions: Setaria faberi, post-emergence, 312 h, evaluated after 13 days. On the procedure: (§1) Seeds of a variety of test species were sown in standard soil in pots. After cultivation for 14 days (post-emergence) under controlled conditions in a glasshouse (at 24/16° C., day/night; 14 hours light; 65% humidity), the plants were sprayed with an aqueous spray solution derived from the dissolution of the technical active ingredient formula (I) in a small amount of acetone and a special solvent and emulsifier mixture referred to as IF50 (11.12% Emulsogen EL360 TM+44.44% N-methylpyrrolidone+44.44% Dowanol DPM glycol ether), to create a 50 g/I solution which was then diluted to required concentration using 0.25% or 1% Empicol ESC70 (Sodium lauryl ether sulphate)+1% ammonium sulphate as diluent. The test plants were then grown in a glasshouse under controlled conditions (at 24/16° C., day/night; 14 hours light; 65% humidity) and watered twice daily. After 13 days the test was evaluated (100=total damage to plant; 0=no damage to plant).
(§2) Ipomoea hederacea (IPOHE), Euphorbia heterophylla (EPHHL), Chenopodium album (CHEAL), Amaranthus palmeri (AMAPA), Lolium perenne (LOLPE), Digitaria sanguinalis (DIGSA), Eleusine indica (ELEIN), Echinochloa crus-galli (ECHCG), Setaria faberi (SETFA)

Experiment [1] concerns Echinochloa crus-galli (ECHCG). To be noted: Echinochloa crus-galli, post-emergence, 312 h, evaluated after 13 days. On the procedure: as §1, §2
The test system of the next experiment is Eleusine indica (ELEIN). To be noted: Eleusine indica, post-emergence, 312 h, evaluated after 13 days. As for the experimental part:
as §1, §2

A further experiment deals with Lolium perenne (LOLPE). As to conditions: Lolium perenne, post-emergence, 312 h, evaluated after 13 days. On the procedure:
as §1, §2

For experiment [2], the system named is Chenopodium album (CHEAL). To be noted: Chenopodium album, post-emergence, 312 h, evaluated after 13 days. As for the experimental part: as §1, §2
Experiment [3] concerns Digitaria sanguinalis (DIGSA). As to conditions: Digitaria sanguinalis, post-emergence, 312 h, evaluated after 13 days. On the procedure: as §1, §2
Experiment [4] deals with Ipomoea hederacea (IPOHE). To be noted: Ipomoea hederacea, post-emergence, 312 h, evaluated after 13 days. On the procedure:
as §1, §2

Experiment [5] has as its system Amaranthus palmeri (AMAPA). As to conditions: Amaranthus palmeri, post-emergence, 312 h, evaluated after 13 days. As for the experimental part:
as §1, §2

Experiment [6] relates to Euphorbia heterophylla (EPHHL). As to conditions: Euphorbia heterophylla, post-emergence, 312 h, evaluated after 13 days. On the procedure: as §1, §2
Setting [7] is: Application Rate 500 g/Ha, Method A, read-out: Control of weed species after post-emergence application, SETFA (100=total damage to plant; 0=no damage to plant).
Setting [8] is: Application Rate 500 g/Ha, Method A, read-out: Control of weed species after post-emergence application, ECHCG (100=total damage to plant; 0=no damage to plant).
Where [9] appears, read: Application Rate 500 g/Ha, Method A, read-out: Control of weed species after post-emergence application, ELEIN (100=total damage to plant; 0=no damage to plant).
Setting [10] is: Application Rate 500 g/Ha, Method A, read-out: Control of weed species after post-emergence application, LOLPE (100=total damage to plant; 0=no damage to plant).
Where [11] appears, read: Application Rate 500 g/Ha, Method A, read-out: Control of weed species after post-emergence application, CHEAL (100=total damage to plant; 0=no damage to plant).
Where [12] appears, read: Application Rate 500 g/Ha, Method A, read-out: Control of weed species after post-emergence application, DIGSA (100=total damage to plant; 0=no damage to plant).
[13] abbreviates: Application Rate 500 g/Ha, Method A, read-out: Control of weed species after post-emergence application, IPOHE (100=total damage to plant; 0=no damage to plant).
Setting [14] is: Application Rate 500 g/Ha, Method A, read-out: Control of weed species after post-emergence application, AMAPA (100=total damage to plant; 0=no damage to plant).
Where [15] appears, read: Application Rate 500 g/Ha, Method A, read-out: Control of weed species after post-emergence application, EPHHL (100=total damage to plant; 0=no damage to plant).
The mark [16] stands for this setting: Application rate 500 g/Ha, 100=total damage to plant, 0=no damage to plant, read-out: Control of weed species after post-emergence application, SETFA.
Setting [17] is: Application rate 500 g/Ha, 100=total damage to plant, 0=no damage to plant, read-out: Control of weed species after post-emergence application, ECHCG.
[18] abbreviates: Application rate 500 g/Ha, 100=total damage to plant, 0=no damage to plant, read-out: Control of weed species after post-emergence application, ELEIN.
Setting [19] is: Application rate 500 g/Ha, 100=total damage to plant, 0=no damage to plant, read-out: Control of weed species after post-emergence application, LOLPE.
[20] abbreviates: Application rate 500 g/Ha, 100=total damage to plant, 0=no damage to plant, read-out: Control of weed species after post-emergence application, CHEAL.
The mark [21] stands for this setting: Application rate 500 g/Ha, 100=total damage to plant, 0=no damage to plant, read-out: Control of weed species after post-emergence application, DIGSA.
Setting [22] is: Application rate 500 g/Ha, 100=total damage to plant, 0=no damage to plant, read-out: Control of weed species after post-emergence application, IPOHE.
The mark [23] stands for this setting: Application rate 500 g/Ha, 100=total damage to plant, 0=no damage to plant, read-out: Control of weed species after post-emergence application, AMAPA.
Setting [24] is: Application rate 500 g/Ha, 100=total damage to plant, 0=no damage to plant, read-out: Control of weed species after post-emergence application, EPHHL.

With `O=c1[nH]c(-c2cc[n+](CCCS(=O)(=O)[O-])nc2)ncc1Cl` [Compound A173], the pest or weed control at 500 g/ha with Setaria faberi (SETFA) (setting [7]) was found to be 30%; in [1] (setting [8]), 30%; in the experiment with Eleusine indica (ELEIN) (setting [9]), 10%; in the experiment with Lolium perenne (LOLPE) (setting [10]), 10%; in [2] (setting [11]) it was 50%; in experiment [3] (setting [12]) it was 20%. Besides, the pest or weed control at 500 g/ha in [4] (setting [13]) stood at 20%; in experiment [5] (setting [14]) it was 30%; in experiment [6] (setting [15]) it was 40%.
Consider `CC(=O)c1ccnc(-c2cc[n+](CCS(=O)(=O)[O-])nc2)n1` [Compound A49], for which the pest or weed control at 500 g/ha is 100% with Setaria faberi (SETFA) (setting [16]); 60% in experiment [1] (setting [17]); 100% with Eleusine indica (ELEIN) (setting [18]); 50% in the experiment with Lolium perenne (LOLPE) (setting [19]); 80% in experiment [2] (setting [20]); 90% in experiment [3] (setting [21]). Moreover, the values for the pest or weed control at 500 g/ha in experiment [4] (setting [22]), in [5] (setting [23]) and in experiment [6] (setting [24]) were 60%, 100% and 70%, respectively.
As to `O=S(=O)([O-])OCC[n+]1ccc(-c2ncccn2)cn1` [Compound A194, 2-(4-pyrimidin-2-ylpyridazin-1-ium-1-yl)ethyl sulfate], the pest or weed control at 500 g/ha in the experiment with Setaria faberi (SETFA) (setting [7]) stood at 50%; in [1] (setting [8]) it was 70%; in the experiment with Eleusine indica (ELEIN) (setting [9]), 90%; with Lolium perenne (LOLPE) (setting [10]), 50%; in experiment [2] (setting [11]) it was 70%; in experiment [3] (setting [12]), 50%. Besides, the pest or weed control at 500 g/ha was 60% in [4] (setting [13]), 100% in [5] (setting [14]) and 70% in experiment [6] (setting [15]).
Regarding `Cc1ccnc(-c2cc[n+](CCS(=O)(=O)[O-])nc2)n1` [Compound A21], the pest or weed control at 500 g/ha came out at 90% in the experiment on Setaria faberi (SETFA) (setting [16]); 60% in experiment [1] (setting [17]); 100% in the experiment with Eleusine indica (ELEIN) (setting [18]); 80% in the experiment with Lolium perenne (LOLPE) (setting [19]); 80% in experiment [2] (setting [20]); 90% in experiment [3] (setting [21]). Also, the pest or weed control at 500 g/ha in experiment [4] (setting [22]) was 40%; in experiment [5] (setting [23]) it was 100%; in experiment [6] (setting [24]) it was 80%.
Regarding `Cc1cccc(-c2cc[n+](CCC(=O)[O-])nc2)n1` [Compound A63], the pest or weed control at 500 g/ha in the experiment on Setaria faberi (SETFA) (setting [16]) was 40%; in experiment [1] (setting [17]), 40%; with Eleusine indica (ELEIN) (setting [18]), 50%; with Lolium perenne (LOLPE) (setting [19]) it was 20%; in experiment [2] (setting [20]) it was 30%; in experiment [3] (setting [21]), 30%. In addition, the pest or weed control at 500 g/ha amounted to 20% in experiment [4] (setting [22]), 40% in experiment [5] (setting [23]) and 30% in experiment [6] (setting [24]).
With `O=S(=O)([O-])CCC[n+]1ccc(-c2cncc(Cl)n2)cn1` [Compound A84], the pest or weed control at 500 g/ha in the experiment on Setaria faberi (SETFA) (setting [16]) came out at 50%; in [1] (setting [17]), 20%; in the experiment on Eleusine indica (ELEIN) (setting [18]) it was 20%; in the experiment with Lolium perenne (LOLPE) (setting [19]), 30%; in experiment [2] (setting [20]), 80%; in experiment [3] (setting [21]), 50%. The pest or weed control at 500 g/ha in experiment [4] (setting [22]) came out at 30%; in experiment [5] (setting [23]), 100%; in experiment [6] (setting [24]) it was 90%.
Take `Nc1cc(-c2cc[n+](CCC(=O)O)nc2)ncn1` [Compound A163]: the pest or weed control at 500 g/ha in [1] (setting [8]) stood at 40%; in the experiment on Eleusine indica (ELEIN) (setting [9]), 90%; in the experiment with Lolium perenne (LOLPE) (setting [10]), 70%; in [2] (setting [11]), 60%; in experiment [3] (setting [12]) it was 50%; in experiment [4] (setting [13]), 30%. The pest or weed control at 500 g/ha in experiment [5] (setting [14]) was 100%; in experiment [6] (setting [15]), 50%.
As for `CN(C)c1ccnc(-c2cc[n+](CCC(=O)[O-])nc2)n1` [Compound A45], the pest or weed control at 500 g/ha in the experiment with Setaria faberi (SETFA) (setting [16]) was 100%; in experiment [1] (setting [17]), 90%; with Eleusine indica (ELEIN) (setting [18]) it was 80%; in the experiment on Lolium perenne (LOLPE) (setting [19]), 30%; in experiment [2] (setting [20]), 60%; in [3] (setting [21]), 80%. The pest or weed control at 500 g/ha in experiment [4] (setting [22]) was determined as 20%; in [6] (setting [24]), 50%.
In the case of `O=S(=O)([O-])CCC[n+]1ccc(-c2ccc(O)nn2)cn1` [Compound A52], the pest or weed control at 500 g/ha came out at 70% in the experiment with Setaria faberi (SETFA) (setting [16]); 60% in [1] (setting [17]); 70% with Eleusine indica (ELEIN) (setting [18]); 10% with Lolium perenne (LOLPE) (setting [19]); 60% in experiment [2] (setting [20]); 70% in experiment [3] (setting [21]). The pest or weed control at 500 g/ha in experiment [4] (setting [22]) turned out to be 20%; in experiment [6] (setting [24]) it was 60%.
Turning to `Cc1cc(C)nc(-c2cc[n+](CCS(=O)(=O)[O-])nc2)n1` [Compound A48], the pest or weed control at 500 g/ha with Setaria faberi (SETFA) (setting [16]) was 100%; in [1] (setting [17]), 70%; with Eleusine indica (ELEIN) (setting [18]), 100%; with Lolium perenne (LOLPE) (setting [19]), 70%; in experiment [2] (setting [20]) it was 100%; in [3] (setting [21]), 90%. Also, the results for the pest or weed control at 500 g/ha in [4] (setting [22]) and in experiment [6] (setting [24]) were 20% and 90%, respectively.
Take `CS(=O)(=O)c1cnc(-c2cc[n+](CCS(=O)(=O)[O-])nc2)nc1` [Compound A15]: the pest or weed control at 500 g/ha in the experiment with Setaria faberi (SETFA) (setting [16]) is 50%; in experiment [1] (setting [17]), 40%; with Eleusine indica (ELEIN) (setting [18]), 80%; in the experiment on Lolium perenne (LOLPE) (setting [19]) it was 10%; in experiment [2] (setting [20]), 90%; in experiment [3] (setting [21]), 60%. Also, the pest or weed control at 500 g/ha came to 10% in [4] (setting [22]) and 20% in experiment [6] (setting [24]).
